For orientation: IC50 means the concentration at which inhibition is half-maximal.

Structures can show the parent of a compound that is named as a salt.

The target of the first assay is human P2X4 receptor (Homo sapiens (Human), UniProt Q99571). Description: P2X4 receptor antagonist activity (ATP-induced intracellular calcium, Fura-2 AM). Type of assay: cell-based. The note with it: 1321N1 cells stably expressing human P2X4 receptor; test substance 15 minutes before ATP; read-out: Inhibitory activity IC50. (A change in cytosolic calcium serves as a functional read-out for many receptors and channels.)
Chain of human P2X4 receptor (Q99571 whole entry): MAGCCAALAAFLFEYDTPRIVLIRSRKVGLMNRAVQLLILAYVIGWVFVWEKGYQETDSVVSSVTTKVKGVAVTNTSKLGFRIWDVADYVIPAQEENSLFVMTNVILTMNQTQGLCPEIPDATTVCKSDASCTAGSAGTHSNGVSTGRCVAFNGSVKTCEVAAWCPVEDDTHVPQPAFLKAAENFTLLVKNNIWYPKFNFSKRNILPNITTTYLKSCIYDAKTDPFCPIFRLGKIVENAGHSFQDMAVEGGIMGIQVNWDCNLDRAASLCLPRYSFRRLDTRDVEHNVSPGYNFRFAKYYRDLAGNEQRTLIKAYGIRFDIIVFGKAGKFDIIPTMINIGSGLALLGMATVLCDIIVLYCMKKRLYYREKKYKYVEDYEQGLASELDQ
As to `O=C(Cc1ccccc1Cl)Nc1ccc(N2C(=O)CC(=O)Nc3c2ccc2ccccc32)cc1` [Example 13, 5-[4-[(2-Chlorophenylacetyl)amino]phenyl]-1H-naphtho[1,2-b][1,4]diazepine-2,4(3H,5H)-dione], the IC50 turned out to be 0.54 µM.
On the same count and under the same terms, the result for `O=C1CC(=O)N(c2ccc(NC(=O)Nc3ccccc3)cc2)c2ccc3ccccc3c2N1` [Example 20, 1-[4-(2,4-Dioxo-1,2,3,4-tetrahydronaphtho[1,2-b][1,4]diazepin-5-yl)phenyl]-3-phenylurea] reads 1.2 µM; that for `O=C1CC(=O)N(c2ccc(NC(=O)c3c(O)cccc3Cl)cc2)c2ccc3ccccc3c2N1` [Example 118, 5-[4-(6-Chloro-2-hydroxybenzoylamino)phenyl]-1H-naphtho[1,2-b][1,4]diazepine-2,4(3H,5H)-dione], 1.1 µM; that for `CN(c1ccc(N2C(=O)CC(=O)Nc3c2ccc2c3CCCC2)cc1)S(=O)(=O)Cc1ccccc1Cl` [Example 196, 1-(2-Chlorophenyl)-N-[4-(2,4-dioxo-1,2,3,4,8,9,10,11-octahydronaphtho[1,2-b][1,4]diazepin-5-yl)phenyl]-N-methylmethanesulfonamide], 0.97 µM.
On to `O=C1CN=C(c2ccc(NS(=O)(=O)Cc3ccccc3Cl)cc2)c2ccc3ccccc3c2N1` [Example 197, 1-(2-Chlorophenyl)-N-[4-(2-oxo-2,3-dihydro-1H-naphtho[1,2-e][1,4]diazepin-5-yl)phenyl]methanesulfonamide], for which the IC50 worked out at 0.44 µM.
As to `Cc1ncccc1C(=O)Nc1ccc(N2C(=O)CC(=O)Nc3c2ccc2ccccc32)cc1` [Example 208, 5-[4-[(2-Methylpyridin-3-yl)carbonylamino]phenyl]-1H-naphtho[1,2-b][1,4]diazepine-2,4(3H,5H)-dione hydrochloride], the IC50 was 1.3 µM.
The same measure, in the same setting: the same measure for `O=C1CC(=O)N(c2ccc(NC(=O)c3cccnc3Cl)cc2)c2ccc3ccccc3c2N1` [Example 209, 5-[4-[(2-Chloropyridin-3-yl)carbonylamino]phenyl]-1H-naphtho[1,2-b][1,4]diazepine-2,4(3H,5H)-dione]: 0.94 µM.
Still for that read-out and setting: the result for `O=C(COc1ccccn1)Nc1ccc(N2C(=O)CC(=O)Nc3c2ccc2ccccc32)cc1` [Example 210, 5-[4-[2-[(Pyridin-2-yl)oxy]acetylamino]phenyl]-1H-naphtho[1,2-b][1,4]diazepine-2,4(3H,5H)-dione] reads 1.4 µM.

The test system of the next assay is Neurogenic pain model (modified Chung model). Kind of assay: Analgesic activity, von Frey filament test in neurogenic pain model (modified Chung model). Type of assay: in vivo. As to conditions: rats, oral administration of 50 mg/kg, day 9 after the modified Chung operation; significant difference compared with vehicle group. On the procedure:
Neurogenic pain model (modified Chung model) was prepared according to the description of Non-patent document 9. More specifically, under isoflurane anesthesia, back hair of rats was extensively shaved, the shaved parts were wiped with rubbing alcohol, the rate were fixed on an incubator in the abdominal position, and the skins were cut and opened along the dorsal median line on the upper and lower sides of the sacroiliac bone. The left lateral paravertebral muscle was separated in the sacral region, and then the ligament was separated. The sacroiliae rim and the upper part thereof were cut and opened along the pyramid, the L5 nerve was ligated, and the nerve was cut on the peripheral side. […]
The pain threshold value (paw withdrawal threshold (g)) was calculated according to the up down method by stimulating the sole with a von Frey filament (Stoelting Co., TOUCH-TEST SENSORY EVALUATOR) and determining presence or absence of withdrawal response.
As the von Frey filaments, seven filaments giving different stimulation strengths were used. The 50% threshold value was calculated according to the up down method by referring to the method of Chaplan et al. (Chaplan S R, Bach F W, Pogrel J W, Chung J M, Yaksh T L.: Quantitative assessment of tactile allodynia in the rat paw, J. Neurosci. Methods, 53:55-63 (1994). […]
For the molecule `O=C1CC(=O)N(c2ccc(NC(=O)c3ccccc3I)cc2)c2ccc3ccccc3c2N1` [Example 48, 5-[4-(2-Iodobenozoylamino)phenyl]-1H-naphtho[1,2-b][1,4]diazepine-2,4(3H,5H)-dione], the “pain threshold value (paw withdrawal threshold) of the diseased limb” value is recorded as “raised the pain threshold value of the diseased limb”.
Consider `O=C1CC(=O)N(c2ccc(NC(=O)c3c(O)cccc3Cl)cc2)c2ccc3ccccc3c2N1` [Example 118, 5-[4-(6-Chloro-2-hydroxybenzoylamino)phenyl]-1H-naphtho[1,2-b][1,4]diazepine-2,4(3H,5H)-dione], for which the “pain threshold value (paw withdrawal threshold) of the diseased limb” value was “raised the pain threshold value of the diseased limb”.
